Laboratory results: patent US10870647B2, “Imidazopyridine derivative, method for preparing same, and pharmaceutical composition containing same as active ingredient for preventing or treating cancer” (DAEGU-GYEONGBUK MEDICAL INNOVATION FOUNDATION, priority 2016, dated 2020)

Assays:
Assay in all cases: Kinase selectivity, scanMAX Kinase assay panel (DiscoverX), % control at 1 uM
Assay type in all cases: binding
[1] = target: T1, scanMAX Kinase assay panel (Homo sapiens, UniProt O14920); settings: IKK-beta; 1 uM; read-out: Percent Control (%)
T1 construct: purchased DiscoverX
T1 sequence (O14920 1-756): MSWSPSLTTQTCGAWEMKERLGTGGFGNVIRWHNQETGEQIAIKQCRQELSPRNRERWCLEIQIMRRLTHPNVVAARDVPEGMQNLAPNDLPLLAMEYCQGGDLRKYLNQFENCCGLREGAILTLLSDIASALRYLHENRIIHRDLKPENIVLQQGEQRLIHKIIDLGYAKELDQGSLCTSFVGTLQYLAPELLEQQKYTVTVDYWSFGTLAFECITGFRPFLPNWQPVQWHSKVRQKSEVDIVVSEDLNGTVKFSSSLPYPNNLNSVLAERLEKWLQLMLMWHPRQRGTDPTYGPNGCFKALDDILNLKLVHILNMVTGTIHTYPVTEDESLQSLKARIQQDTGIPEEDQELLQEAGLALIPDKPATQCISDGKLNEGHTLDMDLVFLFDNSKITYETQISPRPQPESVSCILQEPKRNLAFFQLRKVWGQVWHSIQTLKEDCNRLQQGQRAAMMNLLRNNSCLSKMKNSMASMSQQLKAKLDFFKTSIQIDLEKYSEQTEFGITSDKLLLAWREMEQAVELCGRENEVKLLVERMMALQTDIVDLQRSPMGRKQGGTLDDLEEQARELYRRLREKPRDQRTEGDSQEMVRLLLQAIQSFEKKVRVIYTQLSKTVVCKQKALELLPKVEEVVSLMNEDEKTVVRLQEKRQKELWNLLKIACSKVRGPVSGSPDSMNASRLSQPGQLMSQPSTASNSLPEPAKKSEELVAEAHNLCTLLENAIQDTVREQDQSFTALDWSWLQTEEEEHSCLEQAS
Method in brief: (§1)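 A single concentration of 1 uM, in DMSO, is applied across the kinase panel. Activity against an individual enzyme is assigned where % control is less than 35.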

[2] = target: T2, scanMAX Kinase assay panel (Homo sapiens, UniProt Q9H2K8); settings: TAOK3; 1 uM; read-out: Percent Control (%)
T2 construct: purchased DiscoverX
T2 sequence (Q9H2K8 1-898): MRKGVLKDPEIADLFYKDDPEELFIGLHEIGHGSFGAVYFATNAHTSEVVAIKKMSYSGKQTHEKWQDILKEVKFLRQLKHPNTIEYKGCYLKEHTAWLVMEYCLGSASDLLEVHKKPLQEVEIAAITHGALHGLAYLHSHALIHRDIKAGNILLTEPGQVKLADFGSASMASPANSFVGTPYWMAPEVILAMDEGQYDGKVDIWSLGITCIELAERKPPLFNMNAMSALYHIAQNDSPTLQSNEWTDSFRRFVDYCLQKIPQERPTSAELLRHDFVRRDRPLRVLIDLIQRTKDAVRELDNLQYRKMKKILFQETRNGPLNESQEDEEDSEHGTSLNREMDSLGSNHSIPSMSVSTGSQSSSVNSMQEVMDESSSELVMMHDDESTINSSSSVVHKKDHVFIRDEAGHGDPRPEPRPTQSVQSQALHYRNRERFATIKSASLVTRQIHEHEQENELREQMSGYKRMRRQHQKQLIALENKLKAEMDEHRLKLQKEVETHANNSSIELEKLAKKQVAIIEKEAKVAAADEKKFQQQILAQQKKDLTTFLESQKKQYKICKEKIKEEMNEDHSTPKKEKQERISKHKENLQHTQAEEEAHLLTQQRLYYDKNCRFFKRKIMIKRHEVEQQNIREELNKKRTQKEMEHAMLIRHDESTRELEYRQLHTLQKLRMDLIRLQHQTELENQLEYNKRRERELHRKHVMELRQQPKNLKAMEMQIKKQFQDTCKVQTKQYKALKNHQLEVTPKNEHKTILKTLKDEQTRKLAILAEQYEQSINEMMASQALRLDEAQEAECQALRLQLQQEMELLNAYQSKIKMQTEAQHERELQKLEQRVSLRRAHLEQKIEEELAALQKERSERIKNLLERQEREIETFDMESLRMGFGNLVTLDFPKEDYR
Method in brief: as §1

[3] = target: T3, scanMAX Kinase assay panel (Homo sapiens, UniProt O94806); settings: PRKD3; 1 uM; read-out: Percent Control (%)
T3 construct: purchased DiscoverX
T3 sequence (O94806 1-890): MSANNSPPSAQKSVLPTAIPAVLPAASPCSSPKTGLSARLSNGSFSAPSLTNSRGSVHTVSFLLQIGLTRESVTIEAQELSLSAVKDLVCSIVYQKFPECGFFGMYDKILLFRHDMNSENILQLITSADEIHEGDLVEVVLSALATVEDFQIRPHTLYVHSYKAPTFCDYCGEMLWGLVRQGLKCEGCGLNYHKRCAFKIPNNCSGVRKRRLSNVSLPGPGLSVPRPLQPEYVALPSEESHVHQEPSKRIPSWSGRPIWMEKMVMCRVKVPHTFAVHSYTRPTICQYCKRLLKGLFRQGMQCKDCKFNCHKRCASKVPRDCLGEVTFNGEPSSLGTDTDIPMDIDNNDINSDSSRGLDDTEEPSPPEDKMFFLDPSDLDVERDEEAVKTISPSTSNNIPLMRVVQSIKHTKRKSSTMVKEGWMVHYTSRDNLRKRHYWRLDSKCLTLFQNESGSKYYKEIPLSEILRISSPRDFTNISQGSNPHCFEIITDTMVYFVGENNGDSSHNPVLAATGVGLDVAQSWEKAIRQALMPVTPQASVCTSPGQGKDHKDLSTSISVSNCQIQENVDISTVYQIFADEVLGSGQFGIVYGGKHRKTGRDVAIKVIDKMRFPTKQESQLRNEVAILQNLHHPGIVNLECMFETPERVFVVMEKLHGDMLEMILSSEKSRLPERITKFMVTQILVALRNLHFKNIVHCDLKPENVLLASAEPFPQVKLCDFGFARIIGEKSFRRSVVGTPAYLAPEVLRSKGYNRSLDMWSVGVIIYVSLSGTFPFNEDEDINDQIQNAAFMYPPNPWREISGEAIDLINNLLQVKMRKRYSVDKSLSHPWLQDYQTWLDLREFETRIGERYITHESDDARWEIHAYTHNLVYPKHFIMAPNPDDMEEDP
Method in brief: as §1

[4] = target: T4, scanMAX Kinase assay panel (Homo sapiens, UniProt Q9UM73); settings: ALK; 1 uM; read-out: Percent Control (%)
T4 construct: purchased DiscoverX
Method in brief: as §1

T4 sequence (Q9UM73 19-1620): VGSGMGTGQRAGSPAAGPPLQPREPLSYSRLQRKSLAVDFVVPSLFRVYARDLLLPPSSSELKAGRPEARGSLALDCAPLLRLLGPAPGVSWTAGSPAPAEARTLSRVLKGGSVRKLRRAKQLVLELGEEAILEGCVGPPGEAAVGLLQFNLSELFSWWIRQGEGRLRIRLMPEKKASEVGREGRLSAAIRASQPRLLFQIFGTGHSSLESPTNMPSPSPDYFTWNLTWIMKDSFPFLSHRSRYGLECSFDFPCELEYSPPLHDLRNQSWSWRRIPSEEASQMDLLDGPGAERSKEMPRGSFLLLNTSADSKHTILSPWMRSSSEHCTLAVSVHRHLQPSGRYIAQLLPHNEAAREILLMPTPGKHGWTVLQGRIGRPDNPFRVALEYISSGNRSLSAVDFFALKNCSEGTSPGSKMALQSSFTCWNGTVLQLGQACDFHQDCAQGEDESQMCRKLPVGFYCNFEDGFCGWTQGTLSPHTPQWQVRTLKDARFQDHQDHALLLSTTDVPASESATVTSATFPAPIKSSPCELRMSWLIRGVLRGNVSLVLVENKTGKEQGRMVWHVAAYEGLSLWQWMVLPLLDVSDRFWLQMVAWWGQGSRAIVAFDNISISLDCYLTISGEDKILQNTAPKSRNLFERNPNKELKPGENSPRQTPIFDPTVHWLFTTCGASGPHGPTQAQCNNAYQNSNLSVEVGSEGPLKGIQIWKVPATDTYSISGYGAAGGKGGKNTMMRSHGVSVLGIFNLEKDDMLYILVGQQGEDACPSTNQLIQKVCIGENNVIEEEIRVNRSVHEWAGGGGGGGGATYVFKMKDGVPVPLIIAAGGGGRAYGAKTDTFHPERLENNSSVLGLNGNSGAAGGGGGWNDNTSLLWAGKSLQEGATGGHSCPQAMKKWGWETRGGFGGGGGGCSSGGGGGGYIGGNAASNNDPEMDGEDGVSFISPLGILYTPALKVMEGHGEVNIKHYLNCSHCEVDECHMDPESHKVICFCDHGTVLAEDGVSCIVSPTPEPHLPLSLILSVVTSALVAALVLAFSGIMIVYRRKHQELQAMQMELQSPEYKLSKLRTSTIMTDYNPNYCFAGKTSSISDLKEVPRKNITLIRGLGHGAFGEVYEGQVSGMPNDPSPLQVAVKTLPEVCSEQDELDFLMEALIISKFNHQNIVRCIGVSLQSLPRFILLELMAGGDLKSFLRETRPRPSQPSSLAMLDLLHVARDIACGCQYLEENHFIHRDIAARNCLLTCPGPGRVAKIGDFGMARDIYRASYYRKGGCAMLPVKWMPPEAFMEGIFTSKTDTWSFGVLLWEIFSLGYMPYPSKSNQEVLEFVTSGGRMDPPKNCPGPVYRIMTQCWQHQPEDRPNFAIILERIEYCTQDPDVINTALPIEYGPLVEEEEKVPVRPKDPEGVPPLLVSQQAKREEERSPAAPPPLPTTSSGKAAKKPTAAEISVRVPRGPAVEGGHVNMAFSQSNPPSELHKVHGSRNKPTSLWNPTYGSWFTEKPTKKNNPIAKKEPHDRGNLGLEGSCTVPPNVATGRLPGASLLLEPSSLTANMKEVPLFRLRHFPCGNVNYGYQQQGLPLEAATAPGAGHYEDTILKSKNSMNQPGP

Structure (SMILES) | remaining binding at 1 µM [1] [%] | remaining binding at 1 µM [2] [%] | remaining binding at 1 µM [3] [%] | remaining binding at 1 µM [4] [%]
Cc1ccc(NC(=O)C2(C(=O)Nc3ccc(F)cc3)CC2)cc1C#Cc1cnc2c(Nc3cnn(C(C)C)c3)cccn12 [Example 78] | 100 | 99 | 88 | 100
Cc1cn(-c2cc(NC(=O)c3ccc(C)c(C#Cc4cnc5c(Nc6cnn(C)c6)cccn45)c3)cc(C(F)(F)F)c2)cn1 [Example 12, 4-methyl-N-(3-(4-methyl-1H-imidazol-1-yl)-5-(trifluoromethyl)phenyl)-3-((8-((1-methyl-1H-pyrazol-4-yl)amino)imidazo[1,2-a]pyridin-3-yl)ethynyl)benzamide] | 39 | 61 | 96 | 100
Cc1ccc(C(=O)Nc2ccc(CN3CCN(C)CC3)c(C(F)(F)F)c2)cc1C#Cc1cnc2c(Nc3cnn(C)c3)cccn12 [Example 1, 4-methyl-3-((8-((1-methyl-1H-pyrazol-4-yl)amino)imidazo[1,2-a]pyridin-3-yl)ethynyl)-N-(4-((4-methylpiperazin-1-yl)methyl)-3-(trifluoromethyl)phenyl)benzamide] | 3 | 1 | 43 | 70
